From US7335757B2, “Carbonyl reductase, gene encoding the same, and process for producing optically active alcohols using the same” (Mitsubishi Chemical Corporation, priority 2002, dated 2008)

B1: carbonyl reductase: Carbonyl reductase purified from Ogataea minuta var. nonfermentans IFO 1473, amino acid sequence SEQ ID NO: 1, about 27,000 Da by SDS-PAGE (protein)
chain: MAKTVYFIAGASRGIGLEVASQLSANPDNYVIASYRSEKSASGLLELAKKDNVDTIVLDIASQESIDAVPAQISKLTDGIDVALINAGIANAMCPILECSRESYTDHWTTNALGPIMLYQAIHKFMLQRETRKVFFTTSAGGSIQAKIPVPVSGYGMSKAALNYAVRKLADECYKDNFTIVLLHPGFVKTDMGQSAIQKMSNGNAELLAYIDSMTIDVPTSAGQIVGAIMTLDKQSSGRFINAADQFDMPF
modifications: Ogataea minuta var nonfermentans

How the values were obtained:
Type in all cases: biochemical, Ogataea minuta var. nonfermentans IFO 1473
[1] = system: carbonyl reductase; assay: Reduction activity of the enzyme on various ketones and aldehyde (initial rate of NADPH decrease)
[2] = system: carbonyl reductase; assay: 2,2,2-trifluoroacetophenone reducing activity after treating the enzyme with various reagents; conditions: enzyme treated at 30° C. for 10 minutes
Experimental: Further, the enzyme was treated in various reagents at 30° C. for 10 minutes and then 2,2,2-trifluoroacetophenone reducing activity was measured.

[3] = system: carbonyl reductase; assay: Temperature stability of the enzyme (residual 2,2,2-trifluoroacetophenone reducing activity); conditions: 10 minutes, 20 mM phosphate buffer pH 7.0
[4] = relative to 2,2,2-trifluoroacetophenone defined as 100, NADPH, 0.1 M phosphate buffer pH 7.0

Row | Molecule | Specific activity (%) ([1]; pH 7) | Specific activity (%) [1, 4] [%] | other results
1 | O=C(c1ccccc1)C(F)(F)F [2,2,2-Trifluoro-acetophenone] | 100.0 |  | 
2 | CC1(Cl)CCCCC1=O (centres unmarked) [2-Chloro-2-Methyl-cyclohexanone] |  | 105.4 | 
3 | O=C(CCl)c1ccccc1 [2-Chloro-acetophenone] | 19.6 |  | 
4 | O=C1CCCCC1Cl (centres unmarked) [2-Chloro-cyclohexanone] | 163.0 |  | 
5 | N#CCCc1ccccc1 [Benzylacetonitrile] | 25.9 |  | 
6 | CC(=O)C(C)=O [Diacetyl] | 12.3 |  | 
7 | CCOC(=O)CC(=O)c1ccccc1 [Ethyl benzoylacetate] |  | 10.9 | 
8 | CCOC(=O)C(=O)C(C)C [Ethyl-3-methyl-2-oxobutanoate] |  | 72.1 | 
9 | CCC(=O)c1ccccc1 [Propiophenone] | 18.8 |  | 
10 | [Cl][Pb][Cl] [lead chloride] |  |  | activity of enzyme in the presence of reagent [2]: considerably inhibited
11 | CC(=O)c1cccc(Br)c1 [m-Bromo-acetophenone] |  | 21.3 | 
12 | CC(=O)c1cccc(Cl)c1 [m-Chloro-acetophenone] | 30.7 |  | 
13 | O=Cc1cccc(Cl)c1 [m-Chlorobenzaldehyde] |  | 14.3 | 
14 | O=Cc1cccc([N+](=O)[O-])c1 [m-Nitrobenzaldehyde] |  | 45.6 | 
15 | O=[N+]([O-])[O-].[Hg+] [mercury nitrate] |  |  | activity of enzyme in the presence of reagent [2]: considerably inhibited
16 | O=Cc1ccccc1Cl [o-Chlorobenzaldehyde] |  | 81.2 | 
17 | O=Cc1ccccc1[N+](=O)[O-] [o-Nitrobenzaldehyde] |  | 52.6 | 
18 | CC(=O)c1ccc(Cl)cc1 [p-Chloro-acetophenone] | 10.2 |  | 
19 | O=Cc1ccc(Cl)cc1 [p-Chlorobenzaldehyde] |  | 15.2 | 
20 | CC1(C)COC(=O)C1=O [α-Keto-pantolactone] |  | 26.3 | 
21 | B1 |  |  | residual activity ([3]; 50° C. or more): rapidly deactivated; residual activity ([3]; 70° C.): lost the activity completely; residual activity ([3]; up to 40° C.): ≥ 79%
